Reference: US12122778B2, “Activating pyruvate kinase R” (Novo Nordisk Health Care AG, priority 2018, dated 2024)

Tests used:
PKR(R510Q) = PKR(R510Q) (Homo sapiens, UniProt P30613, R510Q); assay: Luminescence Biochemical Assay (Kinase Glo Plus), PKR R510Q mutant; settings: without FBP; for activation at 1.54 µM: 1.54 μM compound, read-out: AC50 LUM KGP woFBP % Fold@1.54 μM mean; for AC50: read-out: AC50 LUM KGP woFBP AC50 μM gmean; for Emax: read-out: AC50 LUM KGP woFBP MAX % FOLD mean
Procedure: (§1) In some embodiments, a PKR Activating Compound can have: (1) an AC50 value of less than 0.1 μM (e.g., compounds with AC50 values of “+++” in Table 13), 0.1-1.0 μM (e.g., compounds with AC50 values of “++” in Table 13), or 1.01-40 μM (e.g., compounds with AC50 values of “+” in Table 13); (2) a MAX % Fold of 75%-250%, 250-500%, or 75%-500%; and/or (3) a % Fold@1.54 μM of 75%-250%, 250-500%, or 75%-500%. In some embodiments, a PKR Activating Compound has (1) an AC50 value of less than 1.0 μM; (2) a MAX % Fold of 75%-500%; and/or (3) a % Fold@1.54 μM of 75%-500%.
(§2) The phosphorylation of Adenosine-5′-diphosphate (ADP) by various mutants of PKR was determined by the Kinase Glo Plus Assay (Promega) in the presence or absence of FBP [D-Fructose-1,6-diphosphate; BOC Sciences, CAS: 81028-91-3] as follows. Unless otherwise indicated, all reagents were purchased from Sigma-Aldrich. All reagents were prepared in buffer containing 50 mM Tris-HCl, 100 mM KCl, 5 mM MgCl2, and 0.01% Triton X100, 0.03% BSA, and 1 mM DTT. Enzyme and PEP [Phospho(enol) pyruvic acid] were added at 2× to all wells of an assay-ready plate containing serial dilutions of test compounds or DMSO vehicle. Final enzyme concentrations for PKR(wt), PKR(R510Q), and PKR(G332S) were 0.8 nM, 0.8 nM, and 10 nM respectively. Final PEP concentration was 100 μM. The Enzyme/PEP mixture was incubated with compounds for 30 minutes at RT before the assay was initiated with the addition of 2×ADP [Adenosine-5′-diphosphate] and KinaseGloPlus. Final concentration of ADP was 100 μM. […] For assays containing FBP, that reagent is added at 30 μM upon reaction initiation. Reactions were allowed to progress for 45 minutes at RT until luminescence was recorded by the BMG PHERAstar FS Multilabel Reader. All compounds were tested in triplicate at concentrations ranging from 42.5 μM to 2.2 nM in 0.83% DMSO.
(§3) Luminescence values were converted to % Fold increase by normalizing to the average of the DMSO control and multiplying by 100. Max, min, slope and AC50 were determined by the standard four parameter fit algorithm of ActivityBase XE Runner. Compounds were evaluated with three parameters—AC50, MAX % Fold, and % Fold@1.54 μM (FIG. 1). The AC50 value for a compound is the concentration (μM) corresponding to the midway between the maximum and minimum values of the four parameter logistic curve fit (i.e., at which the % fold increase along the four parameter logistic curve fit is halfway between MAX % Fold and MIN % Fold (% Fold Midpoint)), MAX % Fold is the highest fold increase observed at any concentration of compound, and % Fold@1.54 μM is the fold increase at a compound concentration of 1.54 μM. The parameter % Fold@1.54 μM was selected to capture elements of both the AC50 and MAX % Fold and to provide a ranking based on both potency and effect. The compound concentration of 1.54 μM was chosen as one that can optimally differentiate the set of compounds based on the range of activities observed.
(§4) As set forth in Table 13 below, AC50 values (columns A, D, G) are defined as follows: ≤0.1 μM (+++); >0.1 μM and ≤1.0 μM (++); >1.0 μM and ≤40 μM (+); >40 μM (0). Max % FOLD values (columns B, E, H) are defined as follows: ≤75% (+); >75% and ≤250% (++); >250% and ≤500% (+++). % Fold@1.54 μM values (columns C, F, J) are defined as follows: ≤75% (+); >75% and ≤250% (++); >250% and ≤50000 (+++).

PKR(wt) = PKR(wt) (Homo sapiens, UniProt P30613); assay: Luminescence Biochemical Assay (Kinase Glo Plus), wild type PKR; settings: without FBP; for activation at 1.54 µM: 1.54 μM compound, read-out: AC50 LUM KGP woFBP % Fold@1.54 μM mean; for AC50: read-out: AC50 LUM KGP woFBP AC50 μM gmean; for Emax: read-out: AC50 LUM KGP woFBP MAX % FOLD mean
Procedure: as §1, §2, §3, §4

Chain of PKR(R510Q) (P30613 whole entry R510Q): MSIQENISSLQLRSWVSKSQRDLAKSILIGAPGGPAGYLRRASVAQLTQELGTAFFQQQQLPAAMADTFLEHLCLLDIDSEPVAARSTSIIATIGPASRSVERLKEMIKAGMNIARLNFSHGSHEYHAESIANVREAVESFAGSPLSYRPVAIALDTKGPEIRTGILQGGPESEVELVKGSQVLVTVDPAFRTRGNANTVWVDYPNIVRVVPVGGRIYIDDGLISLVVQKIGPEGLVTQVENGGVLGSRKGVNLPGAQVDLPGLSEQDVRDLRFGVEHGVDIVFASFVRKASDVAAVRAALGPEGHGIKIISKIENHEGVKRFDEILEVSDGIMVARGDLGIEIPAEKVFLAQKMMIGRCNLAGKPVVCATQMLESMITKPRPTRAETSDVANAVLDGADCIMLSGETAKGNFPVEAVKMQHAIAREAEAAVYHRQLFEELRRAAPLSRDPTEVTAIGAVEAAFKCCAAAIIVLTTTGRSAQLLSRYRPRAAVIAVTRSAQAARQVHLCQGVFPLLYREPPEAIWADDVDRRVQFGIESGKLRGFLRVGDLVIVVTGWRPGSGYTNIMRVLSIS
Chain of PKR(wt) (P30613 whole entry): as the sequence (P30613 whole entry R510Q) above, with Q510R counted along it

| activation at 1.54 µM (PKR(R510Q)) [%] | AC50 (PKR(R510Q)) [µM] | Emax (PKR(R510Q)) [%] | activation at 1.54 µM (PKR(wt)) [%] | AC50 (PKR(wt)) [µM] | Emax (PKR(wt)) [%] | SMILES |
| --- | --- | --- | --- | --- | --- | --- |
| 250 to 50000 | 0.1 to 1 | 250 to 500 | 250 to 50000 | 0.1 to 1 | 250 to 500 | Cc1cc(CNC(=O)N2CC3=C(C2)CN(S(=O)(=O)c2ccc(OC(F)F)cc2)C3)no1 [Example 21-5, 5-[4-(Difluoromethoxy)benzenesulfonyl]-N-[(5-methyl-1,2-oxazol-3-yl)methyl]-1H,2H,3H,4H,5H,6H-pyrrolo[3,4-c]pyrrole-2-carboxamide] |
| 250 to 50000 | 0.1 to 1 | 250 to 500 | 250 to 50000 | 0.1 to 1 | 250 to 500 | Cc1cc(CNC(=O)N2CC3=C(C2)CN(S(=O)(=O)c2ccc(OC(F)F)cc2)C3)on1 [Example 21-6, 5-[4-(Difluoromethoxy)benzenesulfonyl]-N-[(3-methyl-1,2-oxazol-5-yl)methyl]-1H,2H,3H,4H,5H,6H-pyrrolo[3,4-c]pyrrole-2-carboxamide] |
| 75 to 250 | 0.1 to 1 | 250 to 500 | 75 to 250 | 0.1 to 1 | 250 to 500 | Cc1cc(CNC(=O)N2CC3=C(C2)CN(S(=O)(=O)c2ccc4ncsc4c2)C3)on1 [Example 21-9, 5-(1,3-Benzothiazole-6-sulfonyl)-N-[(3-methyl-1,2-oxazol-5-yl)methyl]-1H,2H,3H,4H,5H,6H-pyrrolo[3,4-c]pyrrole-2-carboxamide] |
| 75 to 250 | 1 to 40 | 75 to 250 | 75 to 250 | 0.1 to 1 | 75 to 250 | CC(C)Oc1cccc(CNC(=O)N2CC3=C(C2)CN(S(=O)(=O)c2ccc4ncsc4c2)C3)c1 [Example 21-21, 5-(1,3-Benzothiazole-6-sulfonyl)-N-{[3-(propan-2-yloxy)phenyl]methyl}-1H,2H,3H,4H,5H,6H-pyrrolo[3,4-c]pyrrole-2-carboxamide] |
| 75 to 250 | 1 to 40 | 75 to 250 | 75 to 250 | 0.1 to 1 | 75 to 250 | O=C(NCc1ccno1)N1CC2=C(C1)CN(S(=O)(=O)c1ccc3ncsc3c1)C2 [Example 21-27, 5-(1,3-Benzothiazole-6-sulfonyl)-N-(1,2-oxazol-5-ylmethyl)-1H,2H,3H,4H,5H,6H-pyrrolo[3,4-c]pyrrole-2-carboxamide] |
| 75 to 250 | 0.1 to 1 | 75 to 250 | 75 to 250 | 0.1 to 1 | 250 to 500 | O=C(NCc1nccs1)N1CC2=C(C1)CN(S(=O)(=O)c1ccc3ncsc3c1)C2 [Example 21-28, 5-(1,3-Benzothiazole-6-sulfonyl)-N-(1,3-thiazol-2-ylmethyl)-1H,2H,3H,4H,5H,6H-pyrrolo[3,4-c]pyrrole-2-carboxamide] |
| 75 to 250 | 0.1 to 1 | 75 to 250 | 250 to 50000 | 0.1 to 1 | 250 to 500 | O=C(NCc1ncco1)N1CC2=C(C1)CN(S(=O)(=O)c1ccc3ncsc3c1)C2 [Example 21-29, 5-(1,3-Benzothiazole-6-sulfonyl)-N-(1,3-oxazol-2-ylmethyl)-1H,2H,3H,4H,5H,6H-pyrrolo[3,4-c]pyrrole-2-carboxamide] |
| 75 to 250 | 1 to 40 | 250 to 500 | 250 to 50000 | 0.1 to 1 | 250 to 500 | O=C(NCc1cnccn1)N1CC2=C(C1)CN(S(=O)(=O)c1ccc3ncsc3c1)C2 [Example 21-30, 5-(1,3-Benzothiazole-6-sulfonyl)-N-(pyrazin-2-ylmethyl)-1H,2H,3H,4H,5H,6H-pyrrolo[3,4-c]pyrrole-2-carboxamide] |

Second part, the molecule before the results:

| SMILES | activation at 1.54 µM (PKR(R510Q)) [%] | AC50 (PKR(R510Q)) [µM] | Emax (PKR(R510Q)) [%] | activation at 1.54 µM (PKR(wt)) [%] | AC50 (PKR(wt)) [µM] | Emax (PKR(wt)) [%] |
| --- | --- | --- | --- | --- | --- | --- |
| Cc1ccc(F)c(S(=O)(=O)N2CC3=C(CN(C(=O)[C@H](O)c4ccccc4)C3)C2)c1 [Example 18-16, (2R)-1-[5-(2-fluoro-5-methylbenzenesulfonyl)-1H,2H,3H,4H,5H,6H-pyrrolo[3,4-c]pyrrol-2-yl]-2-hydroxy-2-phenylethan-1-one] | 250 to 50000 | ≤ 0.1 | 250 to 500 | 75 to 250 | ≤ 0.1 | 75 to 250 |
| COc1ccc(S(=O)(=O)N2CC3=C(CN(C(=O)[C@H](O)c4ccccc4)C3)C2)cc1F [Example 18-17, (2R)-1-[5-(3-fluoro-4-methoxybenzenesulfonyl)-1H,2H,3H,4H,5H,6H-pyrrolo[3,4-c]pyrrol-2-yl]-2-hydroxy-2-phenylethan-1-one] | 250 to 50000 | ≤ 0.1 | 250 to 500 | 75 to 250 | ≤ 0.1 | 75 to 250 |
| O=C([C@H](O)c1ccccc1)N1CC2=C(C1)CN(S(=O)(=O)c1ccc(F)cc1F)C2 [Example 18-18, (2R)-1-[5-(2,4-difluorobenzenesulfonyl)-1H,2H,3H,4H,5H,6H-pyrrolo[3,4-c]pyrrol-2-yl]-2-hydroxy-2-phenylethan-1-one] | 250 to 50000 | 0.1 to 1 | 250 to 500 | 75 to 250 | ≤ 0.1 | 75 to 250 |
| O=C(C1OCCc2ccccc21)N1CC2=C(C1)CN(S(=O)(=O)c1ccc(OC(F)F)cc1)C2 (stereo not drawn) [Example 18-33, 2-[4-(Difluoromethoxy)benzenesulfonyl]-5-(3,4-dihydro-1H-2-benzopyran-1-carbonyl)-1H,2H,3H,4H,5H,6H-pyrrolo[3,4-c]pyrrole] | 75 to 250 | 1 to 40 | 250 to 500 | 75 to 250 | 1 to 40 | 250 to 500 |
| N#Cc1ccc(S(=O)(=O)N2CC3=C(CN(C(=O)[C@H](O)c4ccccc4)C3)C2)cc1 [Example 18-45, 4-({5-[(2R)-2-hydroxy-2-phenylacetyl]-1H,2H,3H,4H,5H,6H-pyrrolo[3,4-c]pyrrol-2-yl}sulfonyl)benzonitrile] | 75 to 250 | 0.1 to 1 | 250 to 500 | 75 to 250 | 0.1 to 1 | 75 to 250 |
| O=C([C@H](O)c1ccccc1)N1CC2=C(C1)CN(S(=O)(=O)c1cccc(C(F)(F)F)c1)C2 [Example 18-49, (2R)-2-hydroxy-2-phenyl-1-{5-[3-(trifluoromethyl)benzenesulfonyl]-1H,2H,3H,4H,5H,6H-pyrrolo[3,4-c]pyrrol-2-yl}ethan-1-one] | 75 to 250 | 0.1 to 1 | 75 to 250 | 75 to 250 | 0.1 to 1 | 75 to 250 |
| O=C([C@H](O)c1ccccc1)N1CC2=C(C1)CN(S(=O)(=O)c1cccc(F)c1)C2 [Example 18-50, (2R)-1-[5-(3-fluorobenzenesulfonyl)-1H,2H,3H,4H,5H,6H-pyrrolo[3,4-c]pyrrol-2-yl]-2-hydroxy-2-phenylethan-1-one] | 75 to 250 | 0.1 to 1 | 250 to 500 | 75 to 250 | 0.1 to 1 | 75 to 250 |
| O=C([C@H](O)c1ccccc1)N1CC2=C(C1)CN(S(=O)(=O)c1ccc(Cl)s1)C2 [Example 18-55, (2R)-1-{5-[(5-chlorothiophen-2-yl)sulfonyl]-1H,2H,3H,4H,5H,6H-pyrrolo[3,4-c]pyrrol-2-yl}-2-hydroxy-2-phenylethan-1-one] | 75 to 250 | 0.1 to 1 | 250 to 500 | 75 to 250 | 0.1 to 1 | 75 to 250 |
